In US20200179308A1, “USE OF ISOHUMULONES AND DERIVATIVES THEREOF TO TREAT POLYCYSTIC OVARY SYNDROME” (KINDEX PHARMACEUTICALS, INC., priority 2017, published 2020):
Several values for one entry are separate records, joined by “and”; a condition that tells them apart may be missing. Identical values can stand only once. Entries after “also recorded” stand apart in the source; their conditions may differ.

Key:
Format in all cases: in vivo
[1] = Weight gain on high fat diet in DIO female mice; settings: female mice on 60% HFD; oral once a day; KDT501 100 mg/kg, PIO 30 mg/kg; compared to VEH
Excerpt: To generate DIO mice, 7 week old female mice on a mixed strain background (129SvJ, C57B16, CD1) were placed and maintained on a high fat diet (HFD) for 8 weeks prior to study and throughout the course of study. The high fat diet consisted of 60% Kcal from fat with an energy density of 5.24 kcal/gm (D12492, Research Diets, Inc., New Brunswick, N.J., USA).
Wood chip bedding was maintained in these cages so that mice would not supplement their diet by eating the standard corncob bedding. Mice were weighed every week. The regular chow diet (Tekland Global 18% protein diet) was 24% Kcal from protein, 58% Kcal from carbohydrate, and 18% Kcal from fat with an energy density of 3.1 kcal/g (Harlan Laboratories, Indianapolis, Ind., USA). All procedures were performed with approval by the Johns Hopkins Animal Care and Use Committee under standard light and dark cycles.
At 80 days after introduction to high fat diet, the test compounds were administered orally to the mice once a day. […]
Female mice fed a high fat diet (60% calories from fat) gained approximately 4 grams of weight during the 8 week study period (FIG. 1). […] All data were analyzed with using Prism Software 5 GraphPad Software (La Jolla, CA) and are expressed as means ±SEM. Significance was determined via unpaired two- tailed Student t-test, one- or two-way ANOVA with the appropriate post-hoc tests. […]

DIO female mice [2] = test: Serum pituitary gonadotropin (LH, FSH) levels, Luminex Milliplex mouse pituitary panel; settings: KDT501 100 mg/kg, PIO 30 mg/kg oral once a day, compared to VEH
Description: (§1) To measure serum levels of LH, FSH, insulin, and leptin, serum samples were collected from mice via mandibular bleed. Mice were fasted overnight, and insulin or saline was injected IP according to the body weight of the mice (0.3 units/kg). Samples were obtained between 9:00 and 10:00 am on diestrus for baseline LH and FSH so as to avoid cycle dependent LH surges that occur in the late afternoon on the evening of proestrus. Rodent morning LH levels are not thought to vary in a cycle dependent manner (Helena et al. 2006). For fasting measurements of insulin, samples were also obtained between 9:00 and 10:00 am. Tissues were collected 10 minutes after insulin injection and snap-frozen in liquid nitrogen. Protein was obtained and measured as described previously (Brothers et al. 2010). To quantify the levels of phosphorylated AKT (pAKT), and AKT for different tissues of each individual animal after insulin or saline injection, Bio-Plex Phosphoprotein Detection Multiplex assays were used (Bio-Rad Laboratories, Hercules, Calif.). Protein ([…]) from each tissue was loaded into a 96-well microplate. Assays were conducted using the Luminex 200 system. Values were assessed as mean fluorescent intensity of phospho-specific signal. Serum was analyzed on a Luminex 20015 platform using the Milliplex Map mouse pituitary panel (LH/FSH) and a Milliplex mouse metabolic panel (insulin/leptin; Millipore, Billerica, Mass., USA). The assay detection limit for LH was 0.0019 ng/mL; for FSH, 0.0095 ng/mL; for insulin, 13.0 pg/mL; and for leptin, 4.2 pg/mL. Serum Testosterone was measured by radioimmunoassay at the University of Virginia Ligand Assay Core.

DIO female mice [3] = test: Estrous cyclicity by vaginal cytology over 15 consecutive days; settings: for percent of mice acyclic (did not complete even 1 complete estrous cycle): 15 day period beginning 10 days after treatment
Description: Diet-induced obesity has been reported to impair estrous cyclicity in female mice (Brothers et al., Wu et al.). In these studies, DIO females were treated with KDT501, PIO or VEH beginning 8 weeks after change to high fat diet. Mice were assessed for estrous cycle stage for 15 consecutive days beginning 10 days after drug/VEH treatment. Vaginal cytology was assessed daily between 9 and 10 am for 15 consecutive days beginning the 10th days after drug treatment. Vaginal cells were collected via saline lavage and then fixed with 100% ethanol and stained with the DIFF Quick Stain Kit (IMEB Inc., San Marcos, Calif., USA). Stages were assessed based on vaginal cytology (Nelson et al. 1982): predominant cornified epithelium indicated the estrus stage, predominant nucleated cells indicated the proestrus stage, both cornified and leukocytes indicated the metestrus stage, and predominant leukocytes indicated the diestrus stage. The percentage of mice at each different cycle stage in each group was calculated.

DIO female mice [4] = test: IP-glucose tolerance test (IP-GTT); settings: one month after drug treatment, relative to VEH
Description: (§2) To begin to assess the effects of drug treatment on glucose metabolism in female DIO mice, IP-glucose tolerance test (IP-GTT) was performed. One month after drug treatment, mice were tested for glucose tolerance by IP-GTT. The mice were fasted overnight for 16 hours, blood was drawn through the tail vein and baseline blood glucose was measured using a OneTouch Ultra glucometer. 20% dextrose was injected IP (2 g/kg body weight). Sample blood glucose was measured at 15, 30, 60, 90 and 120 minutes. One week after IP-GTT, the mice were tested for whole body insulin sensitivity by insulin tolerance test (ITT). Mice were fasted for seven hours, blood was drawn through the tail vein and baseline blood glucose was measured as above. 0.3 units/kg insulin was injected IP. Blood glucose of each mouse were measured at 15, 30, 60, 90 and 120 minutes. Area under the curve (AUC) was calculated for both the IP-GTT and the ITT.

DIO female mice [5] = test: Insulin tolerance test (ITT), whole body insulin sensitivity
Description: as §2

DIO female mice [6] = test: Liver lipid accumulation, H&E staining quantified with ImageJ
Description: Liver tissues were collected and placed immediately in 10% formalin. 5 μm sections of tissue were stained with H&E by the Johns Hopkins Molecular and Comparative Pathobiology Phenotyping Core. Quantification of the area of fat in liver tissue was measured with NIH imageJ software and compared across groups.

DIO female mice [7] = test: Fasting serum insulin, leptin and IL-6 by Luminex assay; settings: between VEH, KDT501 and PIO groups
Description: as §1

[8] = 15 day period, KDT501 100 mg/kg, PIO 30 mg/kg

CC(C)CCC(=O)[C@@]1(O)C([O-])=C(C(=O)CC(C)C)C(=O)[C@@H]1CCC(C)C.[K+] [KDT501, Potassium salt of (+)-KDT500]
weight gain (Δ weight from week 0) over the 8 week study period [1]: no weight gain; also recorded: attenuated weight gain | morning serum FSH level (DIO female mice [2]): not significantly altered | morning serum LH level (DIO female mice [2]): not significantly altered | ratio of LH/FSH (DIO female mice [2]): no significant difference | percent of mice acyclic (did not complete even 1 complete estrous cycle) (DIO female mice [3]; KDT501 100 mg/kg, PIO 30 mg/kg): 7.1% | percentage of mice that completed 3 complete estrous cycles (DIO female mice [3]; [8]): 20% | percentage of mice that had (at least) two complete estrous cycles (DIO female mice [3]; [8]): 60% | percentage of mice that had one complete estrous cycle (DIO female mice [3]; [8]): Roughly an even percentage | number of complete estrous cycles per mouse (DIO female mice [3]; 15 days of analysis, compared to VEH): significantly more complete estrous cycles; also recorded: significant increase in number of cycles/mouse | glucose tolerance (blood glucose after IP dextrose) (DIO female mice [4]; 16 h fast, 2 g/kg dextrose IP): improved glucose tolerance | glucose tolerance, IP-GTT area under the curve (AUC) (DIO female mice [4]): significant improvement in glucose tolerance | insulin sensitivity, ITT area under the curve (AUC) (DIO female mice [5]; 0.3 units/kg insulin IP, relative to VEH): improved insulin sensitivity | fasting glucose levels (7 hrs fasting) (DIO female mice [5]; before insulin injection, compared to VEH controls): lower fasting glucose levels | fat / lipid accumulation in liver, KDT501 versus PIO (DIO female mice [6]; KDT501 100 mg/kg compared to PIO 30 mg/kg): significantly less lipid accumulation; also recorded: significantly less fat | fat / lipid accumulation in liver (DIO female mice [6]; KDT501 100 mg/kg, PIO 30 mg/kg, relative to VEH): significantly less lipid accumulation; also recorded: significant reduction in fat | fasting serum IL-6 level (DIO female mice [7]): not significantly different; also recorded: No significant differences | fasting serum insulin level (DIO female mice [7]): not significantly different; also recorded: No significant differences | fasting serum leptin level (DIO female mice [7]): not significantly different; also recorded: No significant differences

CCc1ccc(CCOc2ccc(CC3SC(=O)NC3=O)cc2)nc1 (stereo not drawn) [PIO, Pioglitazone, reference compound]
percent of mice acyclic (did not complete even 1 complete estrous cycle) (DIO female mice [3]; KDT501 100 mg/kg, PIO 30 mg/kg): 20% | percentage of mice that completed 3 complete estrous cycles (DIO female mice [3]; [8]): 21% and 28% | percentage of mice that had (at least) two complete estrous cycles (DIO female mice [3]; [8]): 25-28%
